This test concerns the target T1, glucokinase (GK), residues 12-465 of the human enzyme (Homo sapiens, UniProt P35557).
T1 construct: I.D. No. 1 corresponds to residues 12-465 of glucokinase; made in house; host or cells: E. coli DH10b-Tlr
T1 sequence (P35557 with tags, fused parts or gaps isoform P35557-2): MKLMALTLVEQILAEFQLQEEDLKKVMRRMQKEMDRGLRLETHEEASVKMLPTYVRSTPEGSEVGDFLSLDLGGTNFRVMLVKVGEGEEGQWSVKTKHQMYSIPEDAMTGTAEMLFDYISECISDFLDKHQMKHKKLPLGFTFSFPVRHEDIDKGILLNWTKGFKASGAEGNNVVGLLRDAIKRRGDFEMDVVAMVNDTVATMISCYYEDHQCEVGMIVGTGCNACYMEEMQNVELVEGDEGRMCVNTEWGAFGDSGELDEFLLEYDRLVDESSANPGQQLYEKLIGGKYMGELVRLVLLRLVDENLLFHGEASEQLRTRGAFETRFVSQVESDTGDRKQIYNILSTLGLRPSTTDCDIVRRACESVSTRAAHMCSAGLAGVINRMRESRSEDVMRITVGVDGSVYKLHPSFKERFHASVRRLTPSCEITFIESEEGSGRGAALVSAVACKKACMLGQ
The test is described as follows: Enzymatic glucokinase activity assay (KinaseGlo luminescence, ATP consumption). It counts as biochemical. As to conditions: 5 μM ATP, 5 mM Glucose; for EC50: GK activation, Kact = concentration giving 50% of the maximal increase in GK activity, read-out: pKact; for Emax: calculated maximal gain in GK enzyme activity at a saturating concentration of the compound, read-out: % ACTmax. The gist of the method:
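C-terminally FLAG-tagged enzyme expressed in E. coli and purified. Reaction: 25 mM Hepes pH 7.2, 25 mM NaCl, 10 mM MgCl2, 0.01% Brij35, 1 mM DTT, 5 μM ATP, 5 mM glucose, 2% DMSO, 60 min at room temperature. Remaining ATP was read by luciferase luminescence; pKact and % ACTmax came from nonlinear fits of 11-point 2-fold dilutions.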

Consider `N#Cc1ccc(NC(=S)N2CCN([C@@H](CC3CCCCC3)C(=O)Nc3nccs3)C(=O)C2)cc1` [Example 126, (S)-2-(4-(4-cyanophenylcarbamothioyl)-2-oxopiperazin-1-yl)-3-cyclohexyl-N-(thiazol-2-yl)propanamide], for which the EC50 lay within 794 to 1260 nM and the Emax was 97.1 to 107%.
On the same counts, the results for `COc1cccc(S(=O)(=O)N2CCN([C@@H](CC3CCCCC3)C(=O)Nc3nccs3)C(=O)C2)c1` [Example 92, (S)-3-cyclohexyl-2-(4-(3-methoxyphenylsulfonyl)-2-oxopiperazin-1-yl)-N-(thiazol-2-yl)propanamide] are 794 to 1260 nM and no less than 119%.
On the same counts, the results for `O=C(Nc1nccs1)[C@H](CC1CCCCC1)N1CCN(S(=O)(=O)c2cc3ccccc3o2)CC1=O` [Example 226, (S)-2-(4-(benzofuran-2-ylsulfonyl)-2-oxopiperazin-1-yl)-3-cyclohexyl-N-(thiazol-2-yl)propanamide] are 794 to 1260 nM and 74.1 to 97%.
On the same counts, the results for `O=C(Nc1nccs1)[C@H](CC1CCCCC1)N1CCN(C(=S)NCc2ccccc2)CC1=O` [Example 82, (S)-2-(4-(benzylcarbamothioyl)-2-oxopiperazin-1-yl)-3-cyclohexyl-N-(thiazol-2-yl)propanamide] are 1580 to 2510 nM and 108 to 119%.
With `O=C(Nc1nccs1)[C@H](CC1CCCCC1)N1CCN(C(=S)Nc2cccc(Cl)c2)CC1=O` [Example 81, (S)-2-(4-(3-chlorophenylcarbamothioyl)-2-oxopiperazin-1-yl)-3-cyclohexyl-N-(thiazol-2-yl)propanamide], the EC50 fell in the range of 1580 to 2510 nM and the Emax was 97.1 to 107%.
On the same counts, the results for `O=C(Nc1nccs1)[C@H](CC1CCCCC1)N1CCN(S(=O)(=O)c2ccc(-n3cccn3)cc2)CC1=O` [Example 215, (S)-2-(4-(4-(1H-pyrazol-1-yl)phenylsulfonyl)-2-oxopiperazin-1-yl)-3-cyclohexyl-N-(thiazol-2-yl)propanamide] are 1580 to 2510 nM and 74.1 to 97%.
On the same counts, the results for `CC(C)Oc1ccc(S(=O)(=O)N2CCN([C@@H](CC3CCCCC3)C(=O)Nc3nccs3)C(=O)C2)cc1` [Example 101, (S)-3-cyclohexyl-2-(4-(4-isopropoxyphenylsulfonyl)-2-oxopiperazin-1-yl)-N-(thiazol-2-yl)propanamide] are no more than 631 nM and no more than 74%.
On the same counts, the results for `CCn1cc(S(=O)(=O)N2CCN([C@@H](CC3CCCCC3)C(=O)Nc3nccs3)C(=O)C2)cn1` [Example 110, (S)-3-cyclohexyl-2-(4-(1-ethyl-1H-pyrazol-4-ylsulfonyl)-2-oxopiperazin-1-yl)-N-(thiazol-2-yl)propanamide] are no less than 3160 nM and no less than 119%.
As for `COc1ccc(NC(=S)N2CCN([C@@H](CC3CCCCC3)C(=O)Nc3nccs3)C(=O)C2)cc1` [Example 86, (S)-3-cyclohexyl-2-(4-(4-methoxyphenylcarbamothioyl)-2-oxopiperazin-1-yl)-N-(thiazol-2-yl)propanamide], the EC50 was no less than 3160 nM and the Emax is 97.1 to 107%.
Regarding `COc1ccc(OC)c(S(=O)(=O)N2CCN([C@@H](CC3CCCCC3)C(=O)Nc3nccs3)C(=O)C2)c1` [Example 194, (S)-3-cyclohexyl-2-(4-(2,5-dimethoxyphenylsulfonyl)-2-oxopiperazin-1-yl)N-(thiazol-2-yl)propanamide], the EC50 was in the range of 794 to 1260 nM and the Emax was 108 to 119%.
With `O=C(Nc1nccs1)[C@H](CC1CCCCC1)N1CCN(S(=O)(=O)N2CCCC2)CC1=O` [Example 229, (S)-3-cyclohexyl-2-(2-oxo-4-(pyrrolidin-1-ylsulfonyl)piperazin-1-yl)-N-(thiazol-2-yl)propanamide], the EC50 is no more than 631 nM and the Emax is 108 to 119%.
On the same counts, the results for `N#Cc1cc(S(=O)(=O)N2CCN([C@@H](CC3CCCCC3)C(=O)Nc3nccs3)C(=O)C2)ccc1F` [Example 230, (S)-2-(4-(3-cyano-4-fluorophenylsulfonyl)-2-oxopiperazin-1-yl)-3-cyclohexyl-N-(thiazol-2-yl)propanamide] are 1580 to 2510 nM and 74.1 to 97%.
On the same counts, the results for `O=C(Nc1nccs1)[C@H](CC1CCCCC1)N1CCN(S(=O)(=O)c2ccc(F)c(F)c2F)CC1=O` [Example 183, (S)-3-cyclohexyl-2-(2-oxo-4-(2,3,4-trifluorophenylsulfonyl)piperazin-1-yl)-N-(thiazol-2-yl)propanamide] are 794 to 1260 nM and no less than 119%.
On the same counts, the results for `O=C(Nc1nccs1)[C@H](CC1CCCCC1)N1CCN(C(=O)Nc2cccc(C(F)(F)F)c2)CC1=O` [Example 141, (S)-4-(3-cyclohexyl-1-oxo-1-(thiazol-2-ylamino)propan-2-yl)-3-oxo-N-(3-(trifluoromethyl)phenyl)piperazine-1-carboxamide] are no less than 3160 nM and 74.1 to 97%.
In the case of `O=C(Nc1nccs1)[C@H](CC1CCCCC1)N1CCN(C(=S)NCCN2CCOCC2)CC1=O` [Example 117, (S)-3-cyclohexyl-2-(4-(2-morpholinoethylcarbamothioyl)-2-oxopiperazin-1-yl)-N-(thiazol-2-yl)propanamide], the EC50 lay within 1580 to 2510 nM and the Emax is 97.1 to 107%.
On the same counts, the results for `O=C(Nc1ncc(F)s1)[C@H](CC1CCOCC1)N1CCN(S(=O)(=O)C2CC2)CC1=O` [Example 21, (S)-2-(4-(cyclopropylsulfonyl)-2-oxopiperazin-1-yl)-N-(5-fluorothiazol-2-yl)-3-(tetrahydro-2H-pyran-4-yl)propanamide] are 1580 to 2510 nM and 108 to 119%.
On the same counts, the results for `N#Cc1cccc(S(=O)(=O)N2CCN([C@@H](CC3CCCCC3)C(=O)Nc3nccs3)C(=O)C2)c1` [Example 62, (S)-2-(4-(3-cyanophenylsulfonyl)-2-oxopiperazin-1-yl)-3-cyclohexyl-N-(thiazol-2-yl)propanamide] are 794 to 1260 nM and 108 to 119%.
On the same counts, the results for `CC(C)(C)c1ccc(S(=O)(=O)N2CCN([C@@H](CC3CCCCC3)C(=O)Nc3nccs3)C(=O)C2)cc1` [Example 224, (S)-2-(4-(4-tert-butylphenylsulfonyl)-2-oxopiperazin-1-yl)-3-cyclohexyl-N-(thiazol-2-yl)propanamide] are 794 to 1260 nM and no more than 74%.
As for `O=C(Nc1nccs1)[C@H](CC1CCCCC1)N1CCN(S(=O)(=O)c2cc3ccccc3s2)CC1=O` [Example 104, (S)-2-(4-(benzo[b]thiophen-2-ylsulfonyl)-2-oxopiperazin-1-yl)-3-cyclohexyl-N-(thiazol-2-yl)propanamide], the EC50 is no more than 631 nM and the Emax is 74.1 to 97%.
On the same counts, the results for `O=C(Nc1nccs1)[C@H](CC1CCCCC1)N1CCN(C(=S)NCc2ccc(F)cc2)CC1=O` [Example 120, (S)-3-cyclohexyl-2-(4-(4-fluorobenzylcarbamothioyl)-2-oxopiperazin-1-yl)-N-(thiazol-2-yl)propanamide] are 794 to 1260 nM and 108 to 119%.
On the same counts, the results for `COc1ccc(CCNC(=O)N2CCN([C@@H](CC3CCCCC3)C(=O)Nc3nccs3)C(=O)C2)cc1OC` [Example 143, (S)-4-(3-cyclohexyl-1-oxo-1-(thiazol-2-ylamino)propan-2-yl)-N-(3,4-dimethoxyphenethyl)-3-oxopiperazine-1-carboxamide] are no less than 3160 nM and no less than 119%.
As to `O=C(O)c1ccc(S(=O)(=O)N2CCN([C@@H](CC3CCCCC3)C(=O)Nc3nccs3)C(=O)C2)cc1` [Example 91, (S)-4-(4-(3-cyclohexyl-1-oxo-1-(thiazol-2-ylamino)propan-2-yl)-3-oxopiperazin-1-ylsulfonyl)benzoic acid], the EC50 was no less than 3160 nM and the Emax is no more than 74%.
For the molecule `Cc1nc(C)c(S(=O)(=O)N2CCN([C@@H](CC3CCCCC3)C(=O)Nc3nccs3)C(=O)C2)s1` [Example 54, (S)-3-cyclohexyl-2-(4-(2,4-dimethylthiazol-5-ylsulfonyl)-2-oxopiperazin-1-yl)-N-(thiazol-2-yl)propanamide], the EC50 is no less than 3160 nM and the Emax is no less than 119%.
As for `O=C(Nc1nccs1)[C@H](CC1CCCCC1)N1CCN(S(=O)(=O)c2cccc3nonc23)CC1=O` [Example 176, (S)-2-(4-(benzo[c][1,2,5]oxadiazol-4-ylsulfonyl)-2-oxopiperazin-1-yl)-3-cyclohexyl-N-(thiazol-2-yl)propanamide], the EC50 is no more than 631 nM and the Emax was no less than 119%.
In the case of `O=C(Nc1nccs1)[C@H](CC1CCCCC1)N1CCN(C(=O)Nc2ccc3sccc3c2)CC1=O` [Example 144, (S)-N-(benzo[b]thiophen-5-yl)-4-(3-cyclohexyl-1-oxo-1-(thiazol-2-ylamino)propan-2-yl)-3-oxopiperazine-1-carboxamide], the EC50 was no less than 3160 nM and the Emax was no more than 74%.

Source of the values: US8173645B2 (Takeda San Diego, Inc., priority 2007, dated 2012).
